# Laboratory results taken from patent US10617709B2, “miRNAs as novel therapeutic adjuvants and biomarkers for the prognosis and treatment of drug resistant breast cancers” (THE BOARD OF REGENTS OF THE UNIVERSITY OF TEXAS SYSTEM, priority 2012, dated 2020).
# System: Tumor explants from TNBC patients
# Assay: Ex-vivo tumor explant model, Ki67 IHC
# Parameters: species or system human
# Conditions: for Ki67 levels: paclitaxel 1 μM, 48 hours
# Method: To further establish the efficacy of these miRNAs in treating TNBC, we used ex-vivo tumor explant model. Freshly excised breast cancer tissues were dissected into 1 mm^3 specimens, placed on hydrated gelatin sponge in explant media supplemented with hydrocortisone and insulin at 37° C. in the CO2 incubator. Tumor explants from TNBC patients were treated with paclitaxel and tissues were gently removed, fixed in 10% neutral buffered formalin and processed for paraffin blocks. IHC analyses were conducted to determine the Ki67 levels. IHC of surgical specimens and explants reveal that explants retain the tissue architecture and proliferation properties of the original surgical specimen. […] FIG. 15.
# Tumor explants growing on the gelatin sponge were treated with either sensitizer miRNA (75 nM) alone or paclitaxel (1 μM) alone or with miRNA (75 nM) and paclitaxel (1 μM) together. […] FIG. 16.
smiles,measurement,setting,value
CC(=O)O[C@H]1C(=O)[C@@]2(C)[C@H]([C@H](OC(=O)c3ccccc3)[C@]3(O)C[C@H](OC(=O)[C@H](O)[C@@H](NC(=O)c4ccccc4)c4ccccc4)C(C)=C1C3(C)C)[C@]1(OC(C)=O)CO[C@@H]1C[C@@H]2O [paclitaxel],response to paclitaxel (Ki67 staining),advanced stage TNBC explant,not responsive
same,Ki67 staining,non-relapsed TNBC explant,inhibition of Ki67 staining
same,Ki67 levels,"relapsed / advanced stage TNBC explants, sensitizer miRNA 75 nM",did not result in significant change
same,Ki67 levels,responsive TNBC (early stage cancer) explants,significant inhibition of Ki67 levels
